From ChEMBL document CHEMBL1148793, “Influence of conformation on GRIND-based three-dimensional quantitative structure-activity relationship (3D-QSAR)” (J Med Chem, 2007)

Each compound was assayed against T1, Lanosterol synthase (Homo sapiens, UniProt P48449) (assay: Inhibition of oxidosqualene cyclase).
T1 sequence (P48449 whole entry): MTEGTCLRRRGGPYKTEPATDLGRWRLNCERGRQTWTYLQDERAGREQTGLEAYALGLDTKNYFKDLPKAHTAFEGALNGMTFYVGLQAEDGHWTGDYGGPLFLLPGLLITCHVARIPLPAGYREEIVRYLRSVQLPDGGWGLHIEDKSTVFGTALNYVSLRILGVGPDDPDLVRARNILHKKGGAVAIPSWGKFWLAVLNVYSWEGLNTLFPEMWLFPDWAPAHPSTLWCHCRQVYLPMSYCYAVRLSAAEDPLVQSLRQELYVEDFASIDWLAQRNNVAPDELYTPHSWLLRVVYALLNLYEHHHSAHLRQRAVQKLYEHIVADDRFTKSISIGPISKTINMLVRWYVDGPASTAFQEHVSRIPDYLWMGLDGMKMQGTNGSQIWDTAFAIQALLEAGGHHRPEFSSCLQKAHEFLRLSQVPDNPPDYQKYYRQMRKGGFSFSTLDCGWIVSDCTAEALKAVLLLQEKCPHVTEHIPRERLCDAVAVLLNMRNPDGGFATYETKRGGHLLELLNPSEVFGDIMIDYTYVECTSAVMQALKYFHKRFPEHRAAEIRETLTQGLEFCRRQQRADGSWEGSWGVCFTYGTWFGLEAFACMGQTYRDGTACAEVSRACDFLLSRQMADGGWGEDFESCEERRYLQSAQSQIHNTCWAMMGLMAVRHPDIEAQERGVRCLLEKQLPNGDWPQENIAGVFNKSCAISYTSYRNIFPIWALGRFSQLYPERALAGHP

Row | IC50 | SMILES
1 | 19.1 nM | CN(C/C=C/COc1ccc(C(=O)c2ccc(Br)cc2)cn1)C1CC1
2 | 240 nM | C=CCN(C)CCCCCCOc1ccc2c(c1)c(C)nn2C
3 | 7.76 nM | C=CCN(C)CCCCCCOc1ccc2c(c1)S(=O)(=O)C=C2c1ccc(Br)cc1
4 | 31.6 nM | CN(CCCCCCOc1ccc(C(=O)c2ccc(Br)cc2)cc1)CC1CC1
